Values of other authors as cited in patent US20250354118A1, “COMPOSITIONS AND METHODS FOR NK CELL DIFFERENTIATION” (Umoja Biopharma, Inc., priority 2022, published 2025).

Target: PSMA-positive human prostate cancer cells (Homo sapiens, UniProt Q04609)
Settings: Kularatne et al., Mol Pharm. 2009

Sequence of PSMA-positive human prostate cancer cells (Q04609 whole entry): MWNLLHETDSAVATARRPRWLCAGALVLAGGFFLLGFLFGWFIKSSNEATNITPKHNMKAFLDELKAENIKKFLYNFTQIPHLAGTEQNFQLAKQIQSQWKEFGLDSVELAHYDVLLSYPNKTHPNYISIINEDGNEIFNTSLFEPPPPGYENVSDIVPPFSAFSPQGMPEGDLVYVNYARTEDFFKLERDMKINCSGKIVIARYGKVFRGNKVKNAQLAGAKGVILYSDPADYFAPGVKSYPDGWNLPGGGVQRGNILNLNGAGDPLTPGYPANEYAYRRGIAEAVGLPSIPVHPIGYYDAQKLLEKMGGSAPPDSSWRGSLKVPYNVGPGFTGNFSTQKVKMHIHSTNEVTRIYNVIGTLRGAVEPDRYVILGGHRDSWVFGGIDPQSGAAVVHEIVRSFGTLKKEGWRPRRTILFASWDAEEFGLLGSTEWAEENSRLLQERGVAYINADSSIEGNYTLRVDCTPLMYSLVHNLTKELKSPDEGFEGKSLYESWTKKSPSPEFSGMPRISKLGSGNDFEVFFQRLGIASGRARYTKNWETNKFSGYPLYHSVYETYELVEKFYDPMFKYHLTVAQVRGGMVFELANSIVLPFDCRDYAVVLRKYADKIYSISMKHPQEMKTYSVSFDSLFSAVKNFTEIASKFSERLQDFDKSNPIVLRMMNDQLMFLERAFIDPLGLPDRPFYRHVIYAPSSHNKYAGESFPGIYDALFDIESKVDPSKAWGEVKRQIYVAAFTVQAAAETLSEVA

In the case of O=C(O)CC[C@H](NC(=O)N[C@@H](CCC(=O)O)C(=O)O)C(=O)O [DUPA], the Kd is given as 14 nM.
